From PubChem BioAssay AID1963425 (Molecular Pharmacology Branch, DTP, NCI, 2024)

Test system: 323965-272-R-J2-PDC complex spheroid growth, % test/control
Test: Anticancer human tumor 323965-272-R-J2-PDC patient-derived pancreatic carcinoma cell line growth inhibition [Asc]
Conditions: for IC50: curve of first compound; for viability, T/C: stronger effect = lower value
In short: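 Tumor cells were grown as multicellular spheroids with stromal HUVEC and mesenchymal stem cells and treated singly or in combination. Concentrations fell in half-log steps from the clinical Cmax, or from 10 microM where none was known.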
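Note: compound exposure lasted 7 days starting three days after spheroid seeding.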
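Throughout, for viability, T/C: 100% = DMSO vehicle control wells with viability set relative to vehicle.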

SMILES: C=C(F)C(=O)N1CCN(c2nc(OCC3CCCN3C)nc3c2CCN(c2cccc4cccc(Cl)c24)C3)CC1CC#N (centres undefined) + CNC(C)C(=O)NC1CN(S(=O)(=O)c2cccc(S(=O)(=O)N3CCC4CCC(C(=O)NC(c5ccccc5)c5ccccc5)N4C(=O)C(NC(=O)C(C)NC)C3)c2)CCC2CCC(C(=O)NC(c3ccccc3)c3ccccc3)N2C1=O
- IC50 (second compound 0.00316 µM): 3.55 µM
- IC50 (second compound 0.01 µM): 3.55 µM
- IC50 (second compound 0.0316 µM): 3.7 µM
- IC50 (second compound 0.1 µM): 3.45 µM
- IC50 (second compound 0.316 µM): 3.72 µM
- IC50 (second compound 1 µM): 3.38 µM
- viability, T/C (second compound 0.00316 µM, first compound 0.0316 µM): 54.3%
- viability, T/C (second compound 0.00316 µM, first compound 0.1 µM): 48.5%
- viability, T/C (second compound 0.00316 µM, first compound 0.316 µM): 50.5%
- viability, T/C (second compound 0.00316 µM, first compound 1 µM): 56.1%
- viability, T/C (second compound 0.00316 µM, first compound 3.16 µM): 67.9%
- viability, T/C (second compound 0.00316 µM, first compound 10 µM): 0.23%
- viability, T/C (second compound 0.01 µM, first compound 0.0316 µM): 62.3%
- viability, T/C (second compound 0.01 µM, first compound 0.1 µM): 44.2%
- viability, T/C (second compound 0.01 µM, first compound 0.316 µM): 48.8%
- viability, T/C (second compound 0.01 µM, first compound 1 µM): 56.6%
- viability, T/C (second compound 0.01 µM, first compound 3.16 µM): 66.3%
- viability, T/C (second compound 0.01 µM, first compound 10 µM): 0.24%
- viability, T/C (second compound 0.0316 µM, first compound 0.0316 µM): 55.8%
- viability, T/C (second compound 0.0316 µM, first compound 0.1 µM): 54.8%
- viability, T/C (second compound 0.0316 µM, first compound 0.316 µM): 47.1%
- viability, T/C (second compound 0.0316 µM, first compound 1 µM): 55.4%
- viability, T/C (second compound 0.0316 µM, first compound 3.16 µM): 76%
- viability, T/C (second compound 0.0316 µM, first compound 10 µM): 0.21%
- viability, T/C (second compound 0.1 µM, first compound 0.0316 µM): 52%
- viability, T/C (second compound 0.1 µM, first compound 0.1 µM): 46.7%
- viability, T/C (second compound 0.1 µM, first compound 0.316 µM): 48.5%
- viability, T/C (second compound 0.1 µM, first compound 1 µM): 53.4%
- viability, T/C (second compound 0.1 µM, first compound 3.16 µM): 69.9%
- viability, T/C (second compound 0.1 µM, first compound 10 µM): 0.25%
- viability, T/C (second compound 0.316 µM, first compound 0.0316 µM): 55.5%
- viability, T/C (second compound 0.316 µM, first compound 0.1 µM): 53.6%
- viability, T/C (second compound 0.316 µM, first compound 0.316 µM): 59.5%
- viability, T/C (second compound 0.316 µM, first compound 1 µM): 53.8%
- viability, T/C (second compound 0.316 µM, first compound 3.16 µM): 68.3%
- viability, T/C (second compound 0.316 µM, first compound 10 µM): 0.21%
- viability, T/C (second compound 1 µM, first compound 0.0316 µM): 56.8%
- viability, T/C (second compound 1 µM, first compound 0.1 µM): 49.1%
- viability, T/C (second compound 1 µM, first compound 0.316 µM): 38.6%
- viability, T/C (second compound 1 µM, first compound 1 µM): 56%
- viability, T/C (second compound 1 µM, first compound 3.16 µM): 65%
- viability, T/C (second compound 1 µM, first compound 10 µM): 0.22%

SMILES: CCN1C(C(=O)NC23CCC(C(=O)O)(CC2)CC3)C(c2cccc(Cl)c2F)C2(C(=O)Nc3cc(Cl)ccc32)C12CCCCC2 (centres undefined) + Cc1c(S(C)(=O)=O)c(-c2cc(F)cc(N3CCN(c4ccc(NS(=O)(=O)c5ccc(NC(CCN6CCC(C(=O)OCCCP(=O)(O)O)CC6)CSc6ccccc6)c(S(=O)(=O)C(F)(F)F)c5)cc4)CC3)c2)c(-c2ccc(Cl)cc2)n1C(C)C
- IC50 (second compound 0.0316 µM): > 3 µM
- IC50 (second compound 0.1 µM): > 3 µM
- IC50 (second compound 0.316 µM): > 3 µM
- IC50 (second compound 1 µM): > 3 µM
- IC50 (second compound 3.16 µM): 1.87 µM
- IC50 (second compound 10 µM): 1.18 µM
- viability, T/C (second compound 0.0316 µM, first compound 0.00949 µM): 117%
- viability, T/C (second compound 0.0316 µM, first compound 0.03 µM): 103%
- viability, T/C (second compound 0.0316 µM, first compound 0.0949 µM): 88.5%
- viability, T/C (second compound 0.0316 µM, first compound 0.3 µM): 101%
- viability, T/C (second compound 0.0316 µM, first compound 0.949 µM): 98.8%
- viability, T/C (second compound 0.0316 µM, first compound 3 µM): 93.8%
- viability, T/C (second compound 0.1 µM, first compound 0.00949 µM): 110%
- viability, T/C (second compound 0.1 µM, first compound 0.03 µM): 94.2%
- viability, T/C (second compound 0.1 µM, first compound 0.0949 µM): 104%
- viability, T/C (second compound 0.1 µM, first compound 0.3 µM): 101%
- viability, T/C (second compound 0.1 µM, first compound 0.949 µM): 88.4%
- viability, T/C (second compound 0.1 µM, first compound 3 µM): 81.8%
- viability, T/C (second compound 0.316 µM, first compound 0.00949 µM): 89.4%
- viability, T/C (second compound 0.316 µM, first compound 0.03 µM): 97.9%
- viability, T/C (second compound 0.316 µM, first compound 0.0949 µM): 94.5%
- viability, T/C (second compound 0.316 µM, first compound 0.3 µM): 87.1%
- viability, T/C (second compound 0.316 µM, first compound 0.949 µM): 90%
- viability, T/C (second compound 0.316 µM, first compound 3 µM): 65.3%
- viability, T/C (second compound 1 µM, first compound 0.00949 µM): 95.3%
- viability, T/C (second compound 1 µM, first compound 0.03 µM): 81.8%
- viability, T/C (second compound 1 µM, first compound 0.0949 µM): 86.5%
- viability, T/C (second compound 1 µM, first compound 0.3 µM): 80.3%
- viability, T/C (second compound 1 µM, first compound 0.949 µM): 81.8%
- viability, T/C (second compound 1 µM, first compound 3 µM): 54%
- viability, T/C (second compound 3.16 µM, first compound 0.00949 µM): 70.6%
- viability, T/C (second compound 3.16 µM, first compound 0.03 µM): 76.3%
- viability, T/C (second compound 3.16 µM, first compound 0.0949 µM): 75.9%
- viability, T/C (second compound 3.16 µM, first compound 0.3 µM): 69.4%
- viability, T/C (second compound 3.16 µM, first compound 0.949 µM): 64.7%
- viability, T/C (second compound 3.16 µM, first compound 3 µM): 40.1%
- viability, T/C (second compound 10 µM, first compound 0.00949 µM): 71.7%
- viability, T/C (second compound 10 µM, first compound 0.03 µM): 67%
- viability, T/C (second compound 10 µM, first compound 0.0949 µM): 71.9%
- viability, T/C (second compound 10 µM, first compound 0.3 µM): 62.1%
- viability, T/C (second compound 10 µM, first compound 0.949 µM): 54.2%
- viability, T/C (second compound 10 µM, first compound 3 µM): 34%
